Reference: PMC8253137, “Microbiota-derived butyrate is an endogenous HIF prolyl hydroxylase inhibitor” (Gut Microbes, 2021)
Where two headings read alike, the source gives them in different places.

Key:
PHD2_181-402 [1] = biological target: T1, PHD2_181-402 (Homo sapiens, UniProt Q9GZT9); assay: PHD2_181-402 inhibition assay (bioluminescent succinate detection, Succinate-Glo); assay type: biochemical; conditions: for IC50: read-out: True IC50; for fold less effective at inhibiting PHD2_181-402 (compared to butyrate): relative to butyrate true IC50
Method: PHD2_181-402 activity and inhibition assays were performed with the Succinate-Glo JmjC Demethylase/Hydroxylase Assay Kit (Promega) according to manufacturer protocol and as detailed in Alves et al. […] The enzymatic reaction was incubated at room temperature for 10 minutes, after which succinate formation was detected according to manufacturer protocol. […] Then, 20 µL of Succinate Detection Reagent II was added to the reactions and incubated for 10 min at room temperature before the luciferase-generated luminescence was recorded on a plate-reading luminometer. Succinate standard curves were used to determine the sensitivity and linear range of the bioluminescent succinate detection. […] Succinate standards were serially diluted two-fold from 15 µM to 58.6 nM and a 0 succinate blank. 10 µL of succinate standards were used for detection as described above. […] Reactions were incubated at room temperature for 10 minutes and succinate detected. […] Measured IC50s were calculated from fitting the percentage activity data to the [Inhibitor] vs. normalized response – variable slope least squares nonlinear regression in GraphPad Prism 9. True IC50s were calculated from measured IC50s with the equation derived by Wu et al.[26] describing the relationship between the measured IC50 of an inhibitor and the percentage of substrate conversion.

PHD2_181-402 [2] = biological target: T1, PHD2_181-402; assay: WaterLOGSY 1D NMR binding; conditions: 10 mM ligand, 25 μM PHD2_181-402
Text: Next, we established whether butyrate binds directly to PHD2_181-402 using 1D WaterLOGSY NMR.[28] This method enables sensitive and robust detection of binding (dissociation constants as weak as μM to low mM) based on the magnetization transfer between water molecules, proteins, and ligands of interest in close proximity via dipolar proton–proton cross-relaxation (nuclear Overhauser effect, NOE). […] Binding and non-binding ligands can be distinguished in a WaterLOGSY spectrum via their opposite signs in relation to water for their corresponding peaks.
Following an established protocol, all NMR analyses were performed using PHD2_181-402 and the diamagnetic element (Zn^2+) rather than a paramagnetic element such as Fe^2+ that would result in inhibitive signal reduction or loss due to fast relaxation induced by the unpaired electron.[63]
Water-Ligand Observed via Gradient SpectroscopY (WaterLOGSY): Measurements were carried out on a 600 MHz triple-resonance Bruker cryoprobe spectrometer.[28] Selective water inversion was achieved using an iBURP shaped pulse with 15 ms length and an inversion bandwidth of 0.4 ppm. The mixing time was set to 1 s, and the water was suppressed using double Watergate. 1024 scans were acquired with an interscan delay of 2 s. The sample concentration was 25 µM of PHD2_181-402 mixed with 10 mM of the different ligands in NMR buffer (Tris 50 mM, NaCl 20 mM, ZnCl2 100 μM) at pH 6.5.

HDACs = system: HDACs; parameters: method as in PMID 18061431, PMID 30052654; conditions: cited from earlier work
murine colon tissue [3] = assay: Rectal gavage in antibiotic-treated SCFA-depleted mice; assay type: in vivo; conditions: rectal 100 mM butyrate or 1.5 mM IOX2, 1 h, after antibiotics
Method: (§1) C57BL/6 mice were purchased from Jackson Laboratories. Animals were maintained and bred in standard housing conditions under 24 h/day, 7 days/week veterinary care available at the University of Colorado Anschutz Medical Campus (AMC) animal facility. All animal procedures were reviewed and approved by the Institutional Animal Care and Use Committee at AMC. 8 to 10-week-old male and female mice were pre-administered an antibiotic cocktail consisting of 1 mg/mL ampicillin, gentamicin, and neomycin, 0.5 mg/mL vancomycin, and 0.25 mg/mL metronidazole for 5 d ad libitum in addition to water control mice. Mice were then given 200 µL of tributyrin daily for three days using reusable feeding needles (18060–20, Fine Science Tools). On the third day, 4 h prior to sacrifice, select mice given tributyrin were rectally given 100 μL of 60 mM MCPA with plastic gavage tubes (FTP-20-38-50, Instech) inserted 1 cm into the rectum without surgical lubricant. Whole colon tissue at the site of the rectal gavage was collected for metabolite analysis, while colon whole tissue and epithelial scrapings upstream from the gavage site was collected for RNA and protein analysis. In the second butyrate reconstitution experiment, mice were rectally given 100 μL of 100 mM butyrate, 100 mM butyrate with 10 mM MCPA, 1.5 mM IOX2, or PBS control under anesthesia. Mice were then sacrificed 1 h after rectal supplementation and colon tissues collected for metabolite, mRNA, and protein analysis from the site of the rectal gavage.
(§2) TRIzol® reagent (ThermoFisher Scientific) was used to isolate total RNA from T84 cells. Mouse colon tissue samples were harvested into RNAlater™ (Invitrogen) and stored at 4°C for 48 h. Total RNA was isolated from the tissues using RNeasy Plus Mini Kit (Qiagen). cDNA was prepared using the iScript cDNA Synthesis Kit (Bio-Rad). Quantitative PCR analysis was performed using the Power SYBR™ Green master mix (Applied Biosystems) in a thermocycler. Fold change in expression of target mRNA relative to β-actin (ACTB) mRNA was calculated using the delta-delta Ct method. Primer sequences used are as follows: hBNIP3 – forward, 5′- […] −3′, reverse, 5′- […] −3′; hBNIP3L – forward, 5′- […] −3′, reverse, 5′- […] −3′; hGLUT1 – forward, 5′- […] −3′, reverse, 5′- […] −3′; hACTB – forward, 5′- […]-3′, reverse, 5′- […]-3′; mBnip3 – forward, 5′- […] −3′, reverse, 5′- […] −3′; mBnip3l – forward, 5′- […] −3′, reverse, 5′- […] −3′; mGlut1 – forward, 5′- […] −3′, reverse, 5′- […] −3′; and mActb – forward, 5′- […] −3′, reverse, 5′- […] −3′.
(§3) T84 cells were rinsed with PBS and collected and lysed in 200 µL of radioimmunoprecipitation assay (RIPA, 50 mM Tris-HCl pH 8.0, 1 mM EDTA, 1% Triton X-100, […], 0.5% sodium deoxycholate, 150 mM NaCl) buffer with protease inhibitors on ice. Mouse colon samples were harvested into 350 µL of RIPA buffer and flash frozen in liquid nitrogen. Samples were homogenized by sonication, and insoluble materials removed by centrifugation at 10,000 g for 5 min at 4°C. Protein quantity of the supernatant was determined using the Bradford reagent. Laemmli sample buffer was added to each sample. Samples (20 µg) were run and separated on 8% SDS-PAGE gels and transferred to polyvinylidene fluoride (PVDF) membranes. Membranes were blocked overnight at 4°C in Tris-buffered saline with 1% Tween-20 (TBS-T) and 5% milk. […]

T84 cells [4] = assay: 2-OG levels in T84 cells; assay type: cell-based; conditions: 3 h, 10 mM butyrate or 30 μM IOX2
Method: (§4) T84 cells were cultured in 95% air with 5% CO2 at 37°C in standard media made of DMEM:F-12 supplemented with 10% calf serum, 1% penicillin/streptomycin, and 1% GlutaMAX™ (ThermoFisher Scientific) on 9.6 cm^2 6-well plates (ThermoFisher Scientific). Real-time oxygen sensing was done using the SensorDish Reader from Applikon Biotechnology as described previously with T84 cells plated on 0.33 cm^2 transwell inserts (Corning, 0.4 μm).[12] All MCPA treatments included a 2 h pretreatment with MCPA before treatment with butyrate.
(§5) Metabolites Extractions and HPLC-DAD: Cell and colon tissue metabolites were extracted and analyzed as previously described with minor variations.[61],[62] The metabolites were detected by absorption at wavelengths of 210, 254, and 280 nm, with their absorbance spectra and retention times verified by co-injection with authentic standards. Metabolites for HPLC-ESI MS analyses were resuspended in deionized water (pH 7.2).
HPLC-ESI MS: Analyses were performed on an Agilent Technologies 1260 Infinity II LC/MSD iQ with electrospray ionization (ESI) mass detection. Negative ion mass-to-charge ratios (m/z) were scanned from 50 to 500. The metabolite extracts were chromatographed using a Sepax Carbomix column (Pb-Np5:8%, 5 μm, non-porous, 4.6 × 300 mm) (mobile phase A: water; mobile phase B: acetonitrile; column temperature, 75°C). Chromatographic separation was performed using a combination of isocratic and gradient methods, including column washing and equilibration periods at the end (0 min: 100% A, 0.12 mL/min; 60 min: 100% A, 0.12 mL/min; 70 min: 70% A, 0.5 mL/min; 145 min: 70% A, 0.5 mL/min; 150 min: 100% A, 0.5 mL/min; 164 min, 100% A, 0.5 mL/min; 165 min, 100% A, 0.12 mL/min; 170 min, 100% A, 0.12 mL/min).

[5] = parameters: method as in PMID 10321503; conditions: mice, oral gavage with tributyrin, 1 h after dosing; cited from earlier work
murine colon tissue [6] = assay: Tributyrin oral gavage in antibiotic-treated SCFA-depleted mice; assay type: in vivo
Method: as §1, §2, §3

T84 cells [7] = assay: Butyrate metabolism and oxygen consumption in T84 cells; assay type: cell-based
Method: as §4, §5

rat hepatocytes = system: rat hepatocytes; parameters: method as in PMID 9124539; conditions: cited from earlier work
[8] = 1 μM PHD2_181-402, 10 μM 2-OG, 10 μM Fe(II), 10 μM HIF-1α547-581 peptide, 100 μM ascorbic acid, 10-minute reaction, calculated from measured IC50 accounting for substrate conversion, error SEM

T1 sequence (Q9GZT9 181-402): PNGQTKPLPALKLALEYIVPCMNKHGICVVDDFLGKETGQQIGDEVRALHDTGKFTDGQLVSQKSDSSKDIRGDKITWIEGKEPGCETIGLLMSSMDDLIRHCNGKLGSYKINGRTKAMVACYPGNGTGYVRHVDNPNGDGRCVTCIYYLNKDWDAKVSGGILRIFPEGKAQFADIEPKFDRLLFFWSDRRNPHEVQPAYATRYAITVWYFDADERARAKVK

Row | SMILES | IC50 (PHD2_181-402 [1]; [8]) [mM] | fold less effective at inhibiting PHD2_181-402 (compared to butyrate) (PHD2_181-402 [1]) | binding to PHD2_181-402 (WaterLOGSY signal) (PHD2_181-402 [2]) | HDAC inhibition (HDACs) | further results
1 | CCC(=O)O [Propionate] | 60 ± 10 | ~ 10 fold | no binding | lesser degrees of HDAC inhibition | –
2 | CC(=O)O [Acetate] | 50 ± 10 | ~ 10 fold | no binding | none | –
3 | O=C(O)CNC(=O)c1c(O)c2ccccc2n(Cc2ccccc2)c1=O [IOX2, reference compound] | – | – | – | – | mRNA expression of HIF-1α targets Bnip3, Bnip3l, Glut1 (murine colon tissue [3]; colon tissue): rescued; colon tissue 2-OG levels (murine colon tissue [3]): rescued; 2-OG levels compared to control (T84 cells [4]): lesser extent than butyrate
4 | COC(=O)CNC(=O)C(=O)OC [DMOG, dimethyloxalylglycine, reference compound] | 1.9 ± 0.5 | – | – | – | change of IC50 with increasing 2-OG (PHD2_181-402 [1]; 2-OG at 1, 5, 10, 40 or 100 µM): increased significantly
5 | CCCCCC(=O)O [Hexanoate] | – | ~ 3 fold | – | lesser degrees of HDAC inhibition | IC50 (PHD2_181-402 [1]): 17 ± 3 mM
6 | CCCCC(=O)O [Valerate] | – | ~ 3 fold | no binding | lesser degrees of HDAC inhibition | IC50 (PHD2_181-402 [1]): 16 ± 3 mM
7 | CCCC(=O)OCC(COC(=O)CCC)OC(=O)CCC [tributyrin] | – | – | – | – | plasma butyrate concentrations [5]: > 1 mM; HIF-1α protein (murine colon tissue [6]; epithelial scrapings and whole-colon tissue, tributyrin 200 µL, 3 d, with or without MCPA): rescued; colon tissue 2-OG levels (murine colon tissue [6]; tributyrin 200 µL, 3 d, with or without MCPA): recovered; colon tissue butyrate levels (murine colon tissue [6]; tributyrin 200 µL, 3 d, with or without MCPA, versus antibiotics (glycerol control)): rescued; HIF-1α target gene Bnip3l mRNA (murine colon tissue [6]; whole-colon tissue and epithelial scrapings, tributyrin 200 µL oral gavage daily for 3 d, with or without 60 mM MCPA rectal 4 h): normalized
8 | CC(O)CC(=O)O (stereo not shown) [3-Hydroxybutyrate] | 14 ± 1 | – | – | – | –
9 | CCC(CC)C(=O)O [2-Ethylbutyrate] | 77 ± 6 | – | – | – | –
10 | C=C1CC1CC(=O)O (stereo not shown) [MCPA, methylene cyclopropyl acetic acid] | – | – | – | – | butyrate metabolism (T84 cells [7]; 600 μM butyrate with 1 mM MCPA, 0 to 6 h): reduced butyrate metabolism; butyrate-associated oxygen consumption (T84 cells [7]; 5 mM butyrate with 1 mM MCPA, 30 min): eliminated the increase in oxygen consumption; reduction of acetyl-CoA levels (rat hepatocytes): 70–90%; colon tissue butyrate level compared to tributyrin alone (murine colon tissue [6]; 60 mM MCPA rectal gavage 4 h in mice given tributyrin): significantly increased
